# Patent US20240108641A1, “COMPOSITIONS FOR ORAL ADMINISTRATION OF ZOLEDRONIC ACID OR RELATED COMPOUNDS FOR TREATING DISEASE” (ANTECIP BIOVENTURES II LLC, priority 2012, published 2024)
# Experiments:
# [1] = test system: chronic low back pain (LBP) and Modic changes; assay: randomized placebo-controlled trial in chronic low back pain with Modic changes, low back symptoms and lumbar flexibility; type: in vivo, human; conditions: for Fingers-to-floor, Unadjusted analyses Difference (95% CI) / Intensity of LBP, Unadjusted analyses Difference (95% CI) / Intensity of leg pain, Unadjusted analyses Difference (95% CI) / Oswestry disability index, Unadjusted analyses Difference (95% CI) / Sidebending to left, Unadjusted analyses Difference (95% CI) / Sidebending to right, Unadjusted analyses Difference (95% CI) / Fingers-to-floor, Adjusted analyses Difference (95% CI) / Intensity of LBP, Adjusted analyses Difference (95% CI) / Intensity of leg pain, Adjusted analyses Difference (95% CI) / Oswestry disability index, Adjusted analyses Difference (95% CI) / Sidebending to left, Adjusted analyses Difference (95% CI) / Sidebending to right, Adjusted analyses Difference (95% CI): ZA versus placebo; for Fingers-to-floor, Adjusted analyses Difference (95% CI) / Intensity of LBP, Adjusted analyses Difference (95% CI) / Intensity of leg pain, Adjusted analyses Difference (95% CI) / Oswestry disability index, Adjusted analyses Difference (95% CI) / Sidebending to left, Adjusted analyses Difference (95% CI) / Sidebending to right, Adjusted analyses Difference (95% CI): adjusted for baseline; for Intensity of LBP, Mean (SD) original values: 10 cm VAS
# Procedure: (§1) A study was performed to evaluate the efficacy of a single intravenous infusion of 5 mg ZA in comparison with intravenous placebo infusion among patients with chronic low back pain (LBP) and Modic changes on MRI. This study was a double-blinded, randomized, placebo-controlled clinical trial in patients with low back pain (LBP). Patients were included in the study if they had low back symptoms for at least three months, an LBP of at least six (6) on a 10-cm Visual Analog Scale (VAS) or an Oswestry Disability Index (ODI) of at least 30%, and an M1, mixed M1/2 or M2 type change on MRI performed within six months at most prior to enrolment.
# Patients were excluded from the study if they had renal impairment with reduced creatinine clearance defined as an estimated glomerular filtration rate (eGFR) below 40 ml/min, hypocalcemia, known hypersensitivity to zoledronic acid or other bisphosphonates or ingredients of the infusion product, the presence of red flags, nerve root entrapment or willingness for early retirement. Premenopausal women of childbearing potential were also excluded. Blood samples were taken prior to the infusion to assess the serum concentration of calcium and creatinine. The clinical examination included medical history and clinical assessment of lumbar flexibility, tendon signs, and motor and sensory testing.
# (§2) After confirmation of eligibility patients were randomized to receive a single intravenous infusion of 5 mg zoledronic acid (n=20) or 100 ml saline as placebo (n=20) over a 15-minute period. Information on use of the concomitant medication and hospital admissions were recorded. Blood samples were taken for the assessment of safety, inflammatory mediators and markers of bone turnover at baseline, one month and one year.
# (§3) Clinical assessments were performed 14 days before enrolment (screening visit), and follow-up visits at one month and one year after the infusion. The primary outcome was the change in the intensity of LBP on VAS. Secondary outcomes included leg pain intensity, ODI, health-related quality of life assessed with RAND-36, patient-reported sick leaves and lumbar flexibility. These outcome measures were assessed at baseline and at each follow-up. Lumbar flexibility was evaluated using the fingers-to-floor and trunk side bending measures (in cm). The percentage of patients undergoing a 20% relative improvement, the proportion of patients reaching a VAS score of 40 or less in the primary outcome, and patient acceptable symptom state (PASS) were also assessed. Pain medication use was inquired about during the follow-up visits.
# [2] = test system: health-related quality of life (RAND-36); assay: randomized placebo-controlled trial in chronic low back pain with Modic changes, RAND-36 quality of life; type: in vivo, human; conditions: for RAND-36 Mental component, Unadjusted analyses Difference (95% CI) / RAND-36 Physical component, Unadjusted analyses Difference (95% CI) / Total RAND-36, Unadjusted analyses Difference (95% CI) / RAND-36 Mental component, Adjusted analyses Difference (95% CI) / RAND-36 Physical component, Adjusted analyses Difference (95% CI) / Total RAND-36, Adjusted analyses Difference (95% CI): ZA versus placebo; for RAND-36 Mental component, Adjusted analyses Difference (95% CI) / RAND-36 Physical component, Adjusted analyses Difference (95% CI) / Total RAND-36, Adjusted analyses Difference (95% CI): adjusted for baseline; for RAND-36 Mental component, Mean (SD) change / RAND-36 Mental component, Mean (SD) original values / RAND-36 Physical component, Mean (SD) change / RAND-36 Physical component, Mean (SD) original values / Total RAND-36, Mean (SD) change / Total RAND-36, Mean (SD) original values: single 5 mg IV infusion
# Procedure: as §1, §2, §3
# [3] = 12 mos., single 5 mg IV infusion
# [4] = one month, single 5 mg IV infusion
smiles,measurement,setting,value
O=P(O)(O)C(O)(Cn1ccnc1)P(=O)(O)O [zoledronic acid],"Fingers-to-floor, Unadjusted analyses Difference (95% CI)",[1]; 1 mo.,5.0 (−4.8 to 15) cm
same,"Intensity of LBP, Unadjusted analyses Difference (95% CI)",[1]; 1 mo.,1.3 (−0.2 to 2.8)
same,"Intensity of leg pain, Unadjusted analyses Difference (95% CI)",[1]; 1 mo.,0.8 (−0.9 to 2.4)
same,"Oswestry disability index, Unadjusted analyses Difference (95% CI)",[1]; 1 mo.,4.3 (−2.5 to 11) %
same,"Sidebending to left, Unadjusted analyses Difference (95% CI)",[1]; 1 mo.,−1.5 (−3.2 to 0.1) cm
same,"Sidebending to right, Unadjusted analyses Difference (95% CI)",[1]; 1 mo.,−2.0 (−4.3 to 0.4) cm
same,"Fingers-to-floor, Adjusted analyses Difference (95% CI)",[1]; 1 mo.,3.6 (−5.0 to 12) cm
same,"Intensity of LBP, Adjusted analyses Difference (95% CI)",[1]; 1 mo.,1.4
same,"Intensity of leg pain, Adjusted analyses Difference (95% CI)",[1]; 1 mo.,0.8 (−0.6 to 2.2)
same,"Oswestry disability index, Adjusted analyses Difference (95% CI)",[1]; 1 mo.,6.0%
same,"Sidebending to left, Adjusted analyses Difference (95% CI)",[1]; 1 mo.,−1.7 (−3.4 to 0.0) cm
same,"Sidebending to right, Adjusted analyses Difference (95% CI)",[1]; 1 mo.,−2.0 (−4.4 to 0.3) cm
same,"Intensity of LBP, Adjusted analyses Difference (95% CI)","[1]; 1 mo., listed as ZA",1.4 (0.01 to 2.9)
same,"Oswestry disability index, Adjusted analyses Difference (95% CI)","[1]; 1 mo., listed as ZA",6.0 (−0.6 to 13) %
same,"Fingers-to-floor, Mean (SD) change","[1]; 1 mo., single 5 mg IV infusion",−5.1 (20) cm
same,"Fingers-to-floor, Mean (SD) original values","[1]; 1 mo., single 5 mg IV infusion",17 (17) cm
same,"Intensity of LBP, Mean (SD) change","[1]; 1 mo., single 5 mg IV infusion",−2.2 (2.7)
same,"Intensity of leg pain, Mean (SD) change","[1]; 1 mo., single 5 mg IV infusion",−0.6 (2.4)
same,"Intensity of leg pain, Mean (SD) original values","[1]; 1 mo., single 5 mg IV infusion",2.0 (2.3)
same,"Oswestry disability index, Mean (SD) change","[1]; 1 mo., single 5 mg IV infusion",−5.9 (11) %
same,"Oswestry disability index, Mean (SD) original values","[1]; 1 mo., single 5 mg IV infusion",24 (10) %
same,"Sidebending to left, Mean (SD) change","[1]; 1 mo., single 5 mg IV infusion",1.1 (3.0) cm
same,"Sidebending to left, Mean (SD) original values","[1]; 1 mo., single 5 mg IV infusion",16.1 (5.3) cm
same,"Sidebending to right, Mean (SD) change","[1]; 1 mo., single 5 mg IV infusion",1.5 (4.7) cm
same,"Sidebending to right, Mean (SD) original values","[1]; 1 mo., single 5 mg IV infusion",15.7 (5.9) cm
same,"Intensity of LBP, Mean (SD) original values","[1]; 1 mo., single 5 mg IV infusion",4.3 (2.3)
same,"Fingers-to-floor, Unadjusted analyses Difference (95% CI)",[1]; 12 mos.,7.1 (−4.3 to 18) cm
same,"Intensity of LBP, Unadjusted analyses Difference (95% CI)",[1]; 12 mos.,0.6 (−1.1 to 2.4)
same,"Intensity of leg pain, Unadjusted analyses Difference (95% CI)",[1]; 12 mos.,0.6 (−1.5 to 2.7)
same,"Oswestry disability index, Unadjusted analyses Difference (95% CI)",[1]; 12 mos.,3.1 (−5.6 to 12) %
same,"Sidebending to left, Unadjusted analyses Difference (95% CI)",[1]; 12 mos.,−0.7 (−3.5 to 2.1) cm
same,"Sidebending to right, Unadjusted analyses Difference (95% CI)",[1]; 12 mos.,−1.6 (−4.3 to 1.1) cm
same,"Fingers-to-floor, Adjusted analyses Difference (95% CI)",[1]; 12 mos.,5.3 (−4.5 to 15) cm
same,"Intensity of LBP, Adjusted analyses Difference (95% CI)",[1]; 12 mos.,0.7
same,"Intensity of leg pain, Adjusted analyses Difference (95% CI)",[1]; 12 mos.,0.5 (−1.3 to 2.2)
same,"Oswestry disability index, Adjusted analyses Difference (95% CI)",[1]; 12 mos.,5.1 (−3.4 to 14) %
same,"Sidebending to left, Adjusted analyses Difference (95% CI)",[1]; 12 mos.,−1.0 (−3.8 to 1.8) cm
same,"Sidebending to right, Adjusted analyses Difference (95% CI)",[1]; 12 mos.,−1.7 (−4.2 to 0.8) cm
same,"Intensity of LBP, Adjusted analyses Difference (95% CI)","[1]; 12 mos., listed as ZA",0.7 (−1.0 to 2.4)
same,"Fingers-to-floor, Mean (SD) change",[1]; [3],−6.3 (23) cm
same,"Fingers-to-floor, Mean (SD) original values",[1]; [3],16 (16) cm
same,"Intensity of LBP, Mean (SD) change",[1]; [3],−2.8 (2.9)
same,"Intensity of leg pain, Mean (SD) change",[1]; [3],−0.9 (3.4)
same,"Intensity of leg pain, Mean (SD) original values",[1]; [3],2.1 (2.8)
same,"Oswestry disability index, Mean (SD) change",[1]; [3],−5.0 (15) %
same,"Oswestry disability index, Mean (SD) original values",[1]; [3],25 (13) %
same,"Sidebending to left, Mean (SD) change",[1]; [3],1.2 (5.3) cm
same,"Sidebending to left, Mean (SD) original values",[1]; [3],16.2 (6.7) cm
same,"Sidebending to right, Mean (SD) change",[1]; [3],1.6 (4.8) cm
same,"Sidebending to right, Mean (SD) original values",[1]; [3],15.7 (5.6) cm
same,"Intensity of LBP, Mean (SD) original values",[1]; [3],3.8 (2.5)
same,"Pain Reduction, VAS Change from Baseline","[1]; Baseline VAS < 6, single 5 mg IV infusion",−0.1 cm
same,"Pain Reduction, VAS Change from Baseline","[1]; Baseline VAS ≥ 6 and <7, single 5 mg IV infusion",−2.3 cm
same,"Pain Reduction, VAS Change from Baseline","[1]; Baseline VAS ≥ 7, single 5 mg IV infusion",−3.4 cm
same,mean reduction in pain from baseline,"[1]; baseline pain intensity <6, single 5 mg IV infusion",0.1
same,mean reduction in pain from baseline,"[1]; baseline pain intensity ≥7, single 5 mg IV infusion",3.4
same,proportion of patients reaching patient acceptable symptom state (PASS),[1]; [4],50%
same,proportion of patients with at least 20% improvement in intensity of LBP,[1]; [4],55%
same,patients using NSAIDs,"[1]; one year, single 5 mg IV infusion",20%
same,"RAND-36 Mental component, Unadjusted analyses Difference (95% CI)",[2]; 1 mo.,2.0 (−2 to 6)
same,"RAND-36 Physical component, Unadjusted analyses Difference (95% CI)",[2]; 1 mo.,0.3 (−4 to 5)
same,"Total RAND-36, Unadjusted analyses Difference (95% CI)",[2]; 1 mo.,1.2 (−3 to 5)
same,"RAND-36 Mental component, Adjusted analyses Difference (95% CI)",[2]; 1 mo.,1.6 (−2 to 5)
same,"RAND-36 Physical component, Adjusted analyses Difference (95% CI)",[2]; 1 mo.,1.3 (−3 to 6)
same,"Total RAND-36, Adjusted analyses Difference (95% CI)",[2]; 1 mo.,1.3 (−3 to 5)
same,"RAND-36 Mental component, Mean (SD) change",[2]; 1 mo.,1.0 (6.1)
same,"RAND-36 Mental component, Mean (SD) original values",[2]; 1 mo.,50 (9)
same,"RAND-36 Physical component, Mean (SD) change",[2]; 1 mo.,0.1 (8.6)
same,"RAND-36 Physical component, Mean (SD) original values",[2]; 1 mo.,52 (9)
same,"Total RAND-36, Mean (SD) change",[2]; 1 mo.,0.6 (6.4)
same,"Total RAND-36, Mean (SD) original values",[2]; 1 mo.,51 (8)
same,"RAND-36 Mental component, Unadjusted analyses Difference (95% CI)",[2]; 12 mos.,3.5 (−2 to 9)
same,"RAND-36 Physical component, Unadjusted analyses Difference (95% CI)",[2]; 12 mos.,0.7 (−5 to 6)
same,"Total RAND-36, Unadjusted analyses Difference (95% CI)",[2]; 12 mos.,2.1 (−3 to 7)
same,"RAND-36 Mental component, Adjusted analyses Difference (95% CI)",[2]; 12 mos.,2.7 (−2 to 7)
same,"RAND-36 Physical component, Adjusted analyses Difference (95% CI)",[2]; 12 mos.,2.1 (−3 to 7)
same,"Total RAND-36, Adjusted analyses Difference (95% CI)",[2]; 12 mos.,2.2 (−2 to 7)
same,"RAND-36 Mental component, Mean (SD) change",[2]; 12 mos.,1.8 (9.0)
same,"RAND-36 Mental component, Mean (SD) original values",[2]; 12 mos.,51 (9)
same,"RAND-36 Physical component, Mean (SD) change",[2]; 12 mos.,0.3 (10)
same,"RAND-36 Physical component, Mean (SD) original values",[2]; 12 mos.,52 (8)
same,"Total RAND-36, Mean (SD) change",[2]; 12 mos.,1.0 (8.7)
same,"Total RAND-36, Mean (SD) original values",[2]; 12 mos.,51 (8)
